Results reported in patent US20240215577A1, “FUNGICIDAL PYRIDONES” (FMC Corporation, priority 2021, published 2024).

Legend:
Type in all cases: in vivo
Botrytis cinerea = assay: Test E: tomato Botrytis, preventive spray on tomato seedlings; settings: 50 ppm, 100 = 100% disease control, 0 = no control; for pest or weed control at 50 ppm: Botrytis cinerea, read-out: Test E disease control rating
Description: (§1) General protocol for preparing test suspensions for Tests A-F: the test compounds were first dissolved in acetone in an amount equal to 3% of the final volume and then suspended at the desired concentration (in ppm) in acetone and purified water (50/50 mix by volume) containing 250 ppm of the surfactant PEG400 (polyhydric alcohol esters). The resulting test suspensions were then used in Tests A-F.
The test suspension was sprayed to the point of run-off on tomato seedlings. The following day the seedlings were inoculated with a spore suspension of Botrytis cinerea (the causal agent of tomato Botrytis) and incubated in a saturated atmosphere at 20° C. for 48 h, and then moved to a growth chamber at 24° C. for 3 days, after which time visual disease ratings were made.
(§2) A rating of 100 indicates 100% disease control and a rating of 0 indicates no disease control (relative to the controls). A dash (-) indicates the compound was not tested.

[1] = tested on: Puccinia recondita f. sp. tritici; assay: Test B: wheat leaf rust, preventive spray on wheat seedlings; settings: 50 ppm, 100 = 100% disease control, 0 = no control; for pest or weed control at 50 ppm: Puccinia recondita, read-out: Test B disease control rating
Description: as §1
The test solution was sprayed to the point of run-off on wheat seedlings. The following day the seedlings were inoculated with a spore suspension of Puccinia recondita f. sp. tritici (the causal agent of wheat leaf rust) and incubated in a saturated atmosphere at 20° C. for 24 h, and then moved to a growth chamber at 20° C. for 7 days, after which time visual disease ratings were made.
as §2

Zymoseptoria tritici = assay: Test A: wheat leaf blotch, preventive spray on wheat seedlings; settings: 50 ppm, 100 = 100% disease control, 0 = no control; for pest or weed control at 50 ppm: Zymoseptoria tritici, read-out: Test A disease control rating
Description: as §1
The test solution was sprayed to the point of run-off on wheat seedlings. The following day the seedlings were inoculated with a spore suspension of Zymoseptoria tritici (the causal agent of wheat leaf blotch) and incubated in a saturated atmosphere at 24° C. for 48 h, and then moved to a growth chamber at 20° C. for 17 days, after which time disease ratings were made.
as §2

Phakopsora pachyrhizi = assay: Test D: Asian soybean rust, preventive spray on soybean seedlings; settings: 50 ppm, 100 = 100% disease control, 0 = no control; for pest or weed control at 50 ppm: Phakopsora pachyrhizi, 216 h, read-out: Test D disease control rating
Description: as §1
The test solution was sprayed to the point of run-off on soybean seedlings. The following day the seedlings were inoculated with a spore suspension of Phakopsora pachyrhizi (the causal agent of Asian soybean rust) and incubated in a saturated atmosphere at 22° C. for 24 h and then moved to a growth chamber at 22° C. for 8 days, after which time visual disease ratings were made.
as §2

[2] = tested on: Blumeria graminis f. sp. tritici; assay: Test C: wheat powdery mildew, preventive spray on wheat seedlings; settings: 50 ppm, 100 = 100% disease control, 0 = no control; for pest or weed control at 50 ppm: Blumeria graminis, read-out: Test C disease control rating
Description: as §1
The test suspension was sprayed to the point of run-off on wheat seedlings. The following day the seedlings were inoculated with a spore dust of Blumeria graminis f. sp. tritici, (also known as Eysiphe graminis f. sp. tritici, the causal agent of wheat powdery mildew) and incubated in a growth chamber at 20° C. for 8 days, after which time visual disease ratings were made.
as §2

Alternaria solani = assay: Test F: tomato early blight, preventive spray on tomato seedlings; settings: 50 ppm, 100 = 100% disease control, 0 = no control; for pest or weed control at 50 ppm: Alternaria solani, read-out: Test F disease control rating
Description: as §1
The test suspension was sprayed to the point of run-off on tomato seedlings. The following day the seedlings were inoculated with a spore suspension of Alternaria solani (the causal agent of tomato early blight) and incubated in a saturated atmosphere at 27° C. for 48 h, and then moved to a growth chamber at 20° C. for 3 days, after which time visual disease ratings were made.
as §2

COc1cc(-c2cn(C)c(=O)c(Cl)c2-c2ccc(F)cc2F)ccc1Br [Compound 21]
Test E disease control rating (Botrytis cinerea): 94% | Test B disease control rating [1]: 96% | Test A disease control rating (Zymoseptoria tritici): 70% | Test D disease control rating (Phakopsora pachyrhizi): 0% | Test C disease control rating [2]: 0% | Test F disease control rating (Alternaria solani): 91%

COc1cc(OC)c(Cl)c(-c2cn(OC)c(=O)c(Cl)c2-c2ccc(F)cc2Cl)c1 [Compound 22, 3-chloro-4-(2-chloro-4-fluorophenyl)-5-(2-chloro-3,5-dimethoxyphenyl)-1-methoxy-2(1H)-pyridinone]
pest or weed control at 50 ppm (Botrytis cinerea): 98% | pest or weed control at 50 ppm [1]: 100% | pest or weed control at 50 ppm (Zymoseptoria tritici): 99% | pest or weed control at 50 ppm (Phakopsora pachyrhizi): 97% | pest or weed control at 50 ppm [2]: 76% | pest or weed control at 50 ppm (Alternaria solani): 99%

CCc1c(-c2ccc(F)cc2Cl)c(-c2cc(F)ccc2Cl)cn(C)c1=O [Compound 23]
Test E disease control rating (Botrytis cinerea): 69% | Test B disease control rating [1]: 100% | Test A disease control rating (Zymoseptoria tritici): 100% | Test D disease control rating (Phakopsora pachyrhizi): 0% | Test C disease control rating [2]: 99% | Test F disease control rating (Alternaria solani): 83%

Cn1cc(-c2cc(F)ccc2F)c(-c2ccc(F)cc2Cl)c(Cl)c1=O [Compound 24]
Test E disease control rating (Botrytis cinerea): 85% | Test B disease control rating [1]: 96% | Test A disease control rating (Zymoseptoria tritici): 96% | Test D disease control rating (Phakopsora pachyrhizi): 0% | Test C disease control rating [2]: 0% | Test F disease control rating (Alternaria solani): 0%

COc1cc(OC)cc(-c2cn(C)c(=O)c(Cl)c2-c2ccc(F)cc2F)c1 [Compound 25]
Test E disease control rating (Botrytis cinerea): 82% | Test B disease control rating [1]: 100% | Test A disease control rating (Zymoseptoria tritici): 100% | Test D disease control rating (Phakopsora pachyrhizi): 84% | Test C disease control rating [2]: 0% | Test F disease control rating (Alternaria solani): 99%

Cn1cc(-c2cc(F)c(F)cc2F)c(-c2ccc(F)cc2Cl)c(Cl)c1=O [Compound 26]
Test E disease control rating (Botrytis cinerea): 83% | Test B disease control rating [1]: 86% | Test A disease control rating (Zymoseptoria tritici): 99% | Test D disease control rating (Phakopsora pachyrhizi): 0% | Test C disease control rating [2]: 0% | Test F disease control rating (Alternaria solani): 0%

Cn1cc(-c2ccccc2C(F)(F)F)c(-c2ccc(F)cc2Cl)c(Cl)c1=O [Compound 27]
Test E disease control rating (Botrytis cinerea): 58% | Test B disease control rating [1]: 100% | Test A disease control rating (Zymoseptoria tritici): 98% | Test D disease control rating (Phakopsora pachyrhizi): 25% | Test C disease control rating [2]: 0% | Test F disease control rating (Alternaria solani): 0%

COc1ccc(F)c(-c2cn(C)c(=O)c(Cl)c2-c2ccc(F)cc2Cl)c1 [Compound 28]
Test E disease control rating (Botrytis cinerea): 98% | Test B disease control rating [1]: 100% | Test A disease control rating (Zymoseptoria tritici): 100% | Test D disease control rating (Phakopsora pachyrhizi): 87% | Test C disease control rating [2]: 97% | Test F disease control rating (Alternaria solani): 99%

COc1ccc(Cl)c(-c2cn(C)c(=O)cc2-c2ccc(F)cc2Cl)c1 [Compound 31]
Test E disease control rating (Botrytis cinerea): 99% | Test B disease control rating [1]: 96% | Test A disease control rating (Zymoseptoria tritici): 96% | Test D disease control rating (Phakopsora pachyrhizi): 0% | Test C disease control rating [2]: 0% | Test F disease control rating (Alternaria solani): 0%

COc1ccc(Cl)c(-c2cn(C)c(=O)c(Cl)c2-c2ccc(F)cc2Cl)c1 [Compound 32, 3-chloro-4-(2-chloro-4-fluorophenyl)-5-(2-chloro-5-methoxyphenyl)-1-methyl-2(1H)-pyridinone]
pest or weed control at 50 ppm (Botrytis cinerea): 100% | pest or weed control at 50 ppm [1]: 100% | pest or weed control at 50 ppm (Zymoseptoria tritici): 100% | pest or weed control at 50 ppm (Phakopsora pachyrhizi): 99% | pest or weed control at 50 ppm [2]: 99% | pest or weed control at 50 ppm (Alternaria solani): 100%

COc1ccc(Cl)c(-c2cn(C)c(=O)c(Br)c2-c2ccc(F)cc2Cl)c1 [Compound 33, 3-bromo-4-(2-chloro-4-fluorophenyl)-5-(2-chloro-5-methoxyphenyl)-1-methyl-2(1H)-pyridinone]
pest or weed control at 50 ppm (Botrytis cinerea): 100% | pest or weed control at 50 ppm [1]: 100% | pest or weed control at 50 ppm (Zymoseptoria tritici): 100% | pest or weed control at 50 ppm (Phakopsora pachyrhizi): 89% | pest or weed control at 50 ppm [2]: 99% | pest or weed control at 50 ppm (Alternaria solani): 100%

Cn1cc(-c2cc(F)ccc2Cl)c(-c2ccc(F)cc2Cl)cc1=O [Compound 34]
Test E disease control rating (Botrytis cinerea): 98% | Test B disease control rating [1]: 68% | Test A disease control rating (Zymoseptoria tritici): 100% | Test D disease control rating (Phakopsora pachyrhizi): 59% | Test C disease control rating [2]: 48% | Test F disease control rating (Alternaria solani): 0%

COc1cc(OC)c(Cl)c(-c2cn(OCC#N)c(=O)c(Cl)c2-c2ccc(F)cc2Cl)c1 [Compound 35]
Test E disease control rating (Botrytis cinerea): 94% | Test B disease control rating [1]: 100% | Test A disease control rating (Zymoseptoria tritici): 84% | Test D disease control rating (Phakopsora pachyrhizi): 92% | Test C disease control rating [2]: 73% | Test F disease control rating (Alternaria solani): 0%

C#CCOn1cc(-c2cc(OC)cc(OC)c2Cl)c(-c2ccc(F)cc2Cl)c(Cl)c1=O [Compound 36, 3-chloro-5-(2-chloro-3,5-dimethoxyphenyl)-4-(2-chloro-4-fluorophenyl)-1-(2-propynyloxy)-2(1H)-pyridinone]
pest or weed control at 50 ppm (Botrytis cinerea): 96% | pest or weed control at 50 ppm [1]: 99% | pest or weed control at 50 ppm (Zymoseptoria tritici): 98% | pest or weed control at 50 ppm (Phakopsora pachyrhizi): 96% | pest or weed control at 50 ppm [2]: 0% | pest or weed control at 50 ppm (Alternaria solani): 0%

COc1cc(OC)c(Cl)c(-c2cn(OCC(F)F)c(=O)c(Cl)c2-c2ccc(F)cc2Cl)c1 [Compound 37]
Test E disease control rating (Botrytis cinerea): 88% | Test B disease control rating [1]: 99% | Test A disease control rating (Zymoseptoria tritici): 68% | Test D disease control rating (Phakopsora pachyrhizi): 87% | Test C disease control rating [2]: 0% | Test F disease control rating (Alternaria solani): 0%

COc1cc(OC)c(Cl)c(-c2cn(OC(F)F)c(=O)c(Cl)c2-c2ccc(F)cc2Cl)c1 [Compound 38, 3-chloro-5-(2-chloro-3,5-dimethoxyphenyl)-4-(2-chloro-4-fluorophenyl)-1-(difluoromethoxy)-2(1H)-pyridinone]
pest or weed control at 50 ppm (Botrytis cinerea): 96% | pest or weed control at 50 ppm [1]: 100% | pest or weed control at 50 ppm (Zymoseptoria tritici): 96% | pest or weed control at 50 ppm (Phakopsora pachyrhizi): 75% | pest or weed control at 50 ppm [2]: 73% | pest or weed control at 50 ppm (Alternaria solani): 0%

COc1cc(OC)c(Cl)c(-c2cn(O)c(=O)c(Cl)c2-c2ccc(F)cc2Cl)c1 [Compound 39, 3-chloro-5-(2-chloro-3,5-dimethoxyphenyl)-4-(2-chloro-4-fluorophenyl)-1-hydroxy-2(1H)-pyridinone]
pest or weed control at 50 ppm (Botrytis cinerea): 56% | pest or weed control at 50 ppm [1]: 86% | pest or weed control at 50 ppm (Zymoseptoria tritici): 69% | pest or weed control at 50 ppm (Phakopsora pachyrhizi): 77% | pest or weed control at 50 ppm [2]: 0% | pest or weed control at 50 ppm (Alternaria solani): 0%
